Laboratory results as given in US10426159B1, “Highly efficient enhancers for antifreeze protein activity” (The Trustees of California State University, priority 2012, dated 2019).
Entries after “also recorded” stand apart in the source; their conditions may differ. Read-outs that look alike come from different tables or passages of the source.

Key:
[1] = system: DAFP-1; experiment: Antifreeze (TH) activity measurements by differential scanning calorimetry: enhancement of TH activity of DAFP-1; assay type: biochemical, Dendroides canadensis; settings: for molar enhancement effectiveness order / enhancement ability for the TH activity of DAFP-1 (in words, relative): pH 7.5; for molar enhancement effectiveness order: FIG. 2 and FIG. 3
Description: (§1) The pH of the final samples was 7.5.

[2] = target: T1, Dendroides canadensis antifreeze protein DAFP-1 (SEQ. ID 1, amino acid 28 through amino acid 108) (Dendroides canadensis, UniProt O46352); experiment: Size-exclusion HPLC (Hummel and Dreyer gel filtration method) of NADH binding to DAFP-1; settings: pH 7.00, ambient temperature, DAFP-1 1.5-20 μM, NADH 0-270 μM, nonlinear regression
T1 construct: b42 prefers 28-108
T1 sequence (O46352 26-108): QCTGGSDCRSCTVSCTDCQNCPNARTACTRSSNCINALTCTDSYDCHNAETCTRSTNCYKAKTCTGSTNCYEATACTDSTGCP
Experimental: The formation of 1:1 complex of DAFP-1 and NADH was further confirmed by HPLC analysis. With the gel filtration method of Hummel and Dreyer, the size exclusion column can be equilibrated with a buffer containing the ligand at a known concentration. The protein sample prepared in the buffer (containing the ligand at the same concentration) is injected into the equilibrated column. If binding occurs, the concentrations of the ligand in the elution buffer and in the elution are usually different. […] The bound ligand can be determined more precisely using the internal calibration method. […]
The binding of NADH to DAFP-1 was characterized using HPLC by an improved gel filtration method of Hummel and Dreyer (Hummel and Dreyer, 1962; Parsons, 1980). […] The eluates were monitored at 220 nm. […] The initial concentrations of NADH were determined using the molar extinction coefficient (ε340=6.22×10^3M^−1cm^−1) (Dawson et al., 1985). […] The amount of bound NADH was determined by the internal calibration method (Parsons 1980; Sun and Hsiao, 1993). The amount of free NADH is obtained fromthe difference of total NADH and calculated bound NADH. […]

[3] = system: DAFPs: DAFP-1, -2, -4, and -6; experiment: TH enhancement by exemplified enhancers for DAFPs; assay type: biochemical, Dendroides canadensis
[4] = Solubility of enhancer in the TH test system; assay type: physicochemical
Description: as §1

Molecule	molar enhancement effectiveness order ([1]; DSC, DAFP-1 453 μM)	enhancement ability for the TH activity of DAFP-1 (in words, relative) ([1]; DSC, DAFP-1 453 μM)	other results
NC(=O)C1=CN([C@@H]2O[C@H](COP(=O)(O)OP(=O)(O)OC[C@H]3O[C@@H](n4cnc5c(N)ncnc54)[C@H](O)[C@@H]3O)[C@@H](O)[C@H]2O)C=CC1 [NADH, (3-nicotinamide adenine dinucleotide, reduced]	NADH>NAD>TNAD>PAAD		Kd [2]: 280 ± 20 nM
Nc1ncnc2c1ncn2[C@@H]1O[C@H](COP(=O)(O)OP(=O)(O)OP(=O)(O)O)[C@@H](O)[C@H]1O [ATP]			increase of the TH activity of DAFPs [3]: at least 5 fold
Nc1ncnc2c1ncn2[C@@H]1O[C@H](COP(=O)(O)OP(=O)(O)OC[C@H]2OC(O)[C@H](O)[C@@H]2O)[C@@H](O)[C@H]1O (stereo partly shown) [ADPR, adenosine 5′-diphosphoribose]	ADPR>AMP>adenosine>R5P>pyrophosphate>ribose	most efficient enhancement ability among these fragments	
O=P(O)(O)OP(=O)(O)O [pyrophosphate]	ADPR>AMP>adenosine>R5P>pyrophosphate>ribose		
NC(=O)c1ccc[n+]([C@@H]2O[C@H](COP(=O)([O-])OP(=O)(O)OC[C@H]3O[C@@H](n4cnc5c(N)ncnc54)[C@H](O)[C@@H]3O)[C@@H](O)[C@H]2O)c1 [NAD, (3-nicotinamide adenine dinucleotide]	NADH>NAD>TNAD>PAAD	very similar to that of its reduced form, NADH, although slightly lower	
NC(=O)C1=CN([C@@H]2O[C@H](COP(=O)(O)OP(=O)(O)OC[C@H]3O[C@@H](n4cnc5c(N)ncnc54)[C@H](OP(=O)(O)O)[C@@H]3O)[C@@H](O)[C@H]2O)C=CC1 [NADPH, (3-nicotinamide adenine dinucleotide phosphate, reduced]		most efficient enhancer; also recorded: much higher than any of the known enhancers	
Nc1ncnc2c1ncn2C1OC(COP(=O)(O)OP(=O)(O)OCC2OC([n+]3cccc(C=O)c3)C(O)C2O)C(O)C1O (stereo not shown) [PAAD, 3-pyridine aldehyde adenine dinucleotide]	NADH>NAD>TNAD>PAAD	very efficient enhancement ability; also recorded: least effective enhancer among the analogs	
O=C[C@H](O)[C@H](O)[C@H](O)COP(=O)(O)O [R5P, D-ribose-5-phosphate]	ADPR>AMP>adenosine>R5P>pyrophosphate>ribose		
Nc1ncnc2c1ncn2[C@@H]1O[C@H](COP(=O)(O)O)[C@@H](O)[C@H]1O [AMP, (−)-adenosine 5′-monophosphate]	ADPR>AMP>adenosine>R5P>pyrophosphate>ribose		
Nc1ncnc2c1ncn2[C@@H]1O[C@H](COP(=O)(O)OP(=O)(O)O)[C@@H](O)[C@H]1O [ADP, adenosine 5′-diphosphate]		less than that of ADPR; also recorded: lower than that of AMP	
CC(C)(COP(=O)(O)OP(=O)(O)OC[C@H]1O[C@@H](n2cnc3c(N)ncnc32)[C@H](O)[C@@H]1OP(=O)(O)O)[C@@H](O)C(=O)NCCC(=O)NCCS [CoA, coenzyme A]		less than those of NADH and NAD analogs	
O=C[C@H](F)[C@@H](O)[C@H](O)[C@H](O)CO [2-fluoro-2-deoxy-D-glucose]			increase of the TH activity of DAFPs [3]: 2 fold
O=c1[nH]c(=O)n([C@@H]2O[C@H](CO)[C@@H](O)[C@H]2O)cc1F [5-Fluorouridine]			increase of the TH activity of DAFPs [3]: 2 fold
Cc1cc2nc3c(=O)[nH]c(=O)nc-3n(C[C@H](O)[C@H](O)[C@H](O)COP(=O)(O)OP(=O)(O)OC[C@H]3O[C@@H](n4cnc5c(N)ncnc54)[C@H](O)[C@@H]3O)c2cc1C [FAD, flavin adenine dinucleotide]		less than those of NADH and NAD analogs	solubility (in words) [4]: limited by its solubility
NC(=S)c1ccc[n+]([C@@H]2O[C@H](COP(=O)([O-])OP(=O)(O)OC[C@H]3O[C@@H](n4cnc5c(N)ncnc54)[C@H](O)[C@@H]3O)[C@@H](O)[C@H]2O)c1 [TNAD, thionicotinamide adenine dinucleotide]	NADH>NAD>TNAD>PAAD	very efficient enhancement ability	
Nc1ncnc2c1ncn2[C@@H]1O[C@H](CO)[C@@H](O)[C@H]1O [adenosine]	ADPR>AMP>adenosine>R5P>pyrophosphate>ribose		enhancement ability for the TH activity of DAFP-1 at 0.080M ([1]; enhancer 0.080M): lower than that of ADP; solubility (in words) ([4]; TH test system): low solubility
O=C[C@H](O)[C@H](O)[C@H](O)CO [ribose, D-(−)-ribose]	ADPR>AMP>adenosine>R5P>pyrophosphate>ribose	least enhancement	
DAFP-1: Dendroides canadensis antifreeze protein, recombinantly expressed in E. coli; SEQ. ID 1 amino acids 28 through 108 (protein, listed as Dendroides canadensis, Dendroides canadensis antifreeze protein, recombinantly expressed in E. coli; ID 1 amino acids 28 through 108) TGGSDCRSCTVSCTDCQNCPNARTACTRSSNCINALTCTDSYDCHNAETCTRSTNCYKAKTCTGSTNCYEATACTDSTGCP			TH activity of the protein sample alone ([1]; DAFP-1 453 μM, no enhancer, DSC): 0.69±0.01 °C; TH activity of DAFP-1 as a function of pH ([1]; pH 2 to pH 12): unchanged
